pIC50, pKi: −log10 of the molar value. Calls of active or inactive are those of the source. No cut-off for these calls is given here.
Tests used:
Acetylcholinesterase [1] = biological target: T1, Acetylcholinesterase (Homo sapiens, UniProt P22303); assay: Inhibition of human AChE using acetylthiocholine as substrate by Ellman's method
Acetylcholinesterase [2] = biological target: T1, Acetylcholinesterase; assay: Competitive inhibition of AChE (unknown origin) by Lineweaver-Burk double reciprocal plot analysis
Cannabinoid receptor 1 = Cannabinoid receptor 1 (Homo sapiens, UniProt P21554); assay: Displacement of [3H]-CP55940 from human CB1 receptor transfected in HEK-293EBNA cells after 90 mins by luminescence counting analysis; format: cell-based
Cholinesterase [3] = biological target: T2, Cholinesterase (Homo sapiens, UniProt P06276); assay: Inhibition of human BuChE using butyrylthiocholine as substrate by Ellman's method
Cholinesterase [4] = biological target: T2, Cholinesterase; assay: Competitive inhibition of BuChE (unknown origin) using butyrylthiocholine as substrate by Lineweaver-Burk double reciprocal plot analysis
Cannabinoid receptor 2 = Cannabinoid receptor 2 (Homo sapiens, UniProt P34972); assay: Displacement of [3H]-CP55940 from human CB2 receptor transfected in HEK-293EBNA cells after 90 mins by luminescence counting analysis; format: cell-based
Cholinesterase [5] = biological target: Cholinesterase (Equus caballus, UniProt P81908); assay: Inhibition of horse serum BuChE using butyrylthiocholine as substrate by Ellman's method
[6] = biological target: T3, Cannabinoid receptor (Mus musculus) (UniProt P47746+P47936); assay: Agonist activity at CB1/CB2 receptor in ICR mouse vas deferens assessed as inhibition of electrically induced contractile response at 2.7 X 10^-6 M after 10 mins in presence of AM251
[7] = biological target: T3, Cannabinoid receptor (Mus musculus); assay: Agonist activity at CB1/CB2 receptor in ICR mouse vas deferens assessed as inhibition of electrically induced contractile response at 2.7 X 10^-6 M after 10 mins in presence of AM251 and AM630
[8] = Antioxidant activity in phosphate buffer after 15 mins by ORAC-FL method relative to trolox; format: functional
[9] = biological target: Cannabinoid receptor 1 (Mus musculus) (UniProt P47746); assay: Agonist activity at CB1 receptor in ICR mouse vas deferens assessed as inhibition of electrically induced contractile response after 10 mins
[10] = biological target: Cannabinoid receptor 1 (Mus musculus) (UniProt P47746); assay: Agonist activity at CB1 receptor in ICR mouse vas deferens assessed as inhibition of electrically induced contractile response at 10^-7 to 2 X 10^-5 M after 10 mins
Cholinesterase [11] = biological target: T2, Cholinesterase; assay: Mixed-type inhibition of BuChE (unknown origin) using butyrylthiocholine as substrate by Lineweaver-Burk double reciprocal plot analysis
Cholinesterase [12] = biological target: T2, Cholinesterase; assay: Noncompetitive inhibition of BuChE (unknown origin) using butyrylthiocholine as substrate by Lineweaver-Burk double reciprocal plot analysis

Sequence of Cannabinoid receptor 1 (P21554 whole entry): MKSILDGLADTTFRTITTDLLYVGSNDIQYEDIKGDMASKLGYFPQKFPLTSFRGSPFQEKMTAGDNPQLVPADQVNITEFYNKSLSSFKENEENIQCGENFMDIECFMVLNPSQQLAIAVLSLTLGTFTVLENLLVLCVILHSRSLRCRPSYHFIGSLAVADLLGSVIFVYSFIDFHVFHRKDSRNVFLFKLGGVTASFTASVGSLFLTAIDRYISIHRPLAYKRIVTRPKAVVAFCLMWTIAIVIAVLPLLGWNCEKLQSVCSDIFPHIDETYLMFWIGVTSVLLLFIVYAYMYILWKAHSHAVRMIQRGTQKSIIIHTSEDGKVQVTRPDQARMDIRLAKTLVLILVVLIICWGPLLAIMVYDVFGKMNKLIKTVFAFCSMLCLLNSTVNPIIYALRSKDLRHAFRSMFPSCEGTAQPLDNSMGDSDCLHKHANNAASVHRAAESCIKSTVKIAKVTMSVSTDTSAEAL
Sequence of Cholinesterase (Equus caballus, UniProt P81908) (P81908 whole entry): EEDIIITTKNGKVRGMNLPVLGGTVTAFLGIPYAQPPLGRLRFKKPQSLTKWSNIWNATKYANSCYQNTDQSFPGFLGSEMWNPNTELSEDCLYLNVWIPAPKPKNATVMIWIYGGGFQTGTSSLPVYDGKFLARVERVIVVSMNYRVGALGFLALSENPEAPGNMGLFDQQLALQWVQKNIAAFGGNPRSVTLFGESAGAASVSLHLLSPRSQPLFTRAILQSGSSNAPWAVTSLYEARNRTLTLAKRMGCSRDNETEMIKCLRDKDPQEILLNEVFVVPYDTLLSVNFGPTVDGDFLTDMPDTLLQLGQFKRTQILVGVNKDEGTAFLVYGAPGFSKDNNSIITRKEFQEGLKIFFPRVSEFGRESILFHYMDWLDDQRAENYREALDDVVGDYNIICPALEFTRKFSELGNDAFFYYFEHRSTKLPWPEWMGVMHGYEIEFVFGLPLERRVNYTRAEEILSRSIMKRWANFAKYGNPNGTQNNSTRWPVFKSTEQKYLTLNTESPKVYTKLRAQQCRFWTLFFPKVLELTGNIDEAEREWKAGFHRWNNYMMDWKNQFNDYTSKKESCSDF
Sequence of Cannabinoid receptor 1 (Mus musculus) (P47746 whole entry): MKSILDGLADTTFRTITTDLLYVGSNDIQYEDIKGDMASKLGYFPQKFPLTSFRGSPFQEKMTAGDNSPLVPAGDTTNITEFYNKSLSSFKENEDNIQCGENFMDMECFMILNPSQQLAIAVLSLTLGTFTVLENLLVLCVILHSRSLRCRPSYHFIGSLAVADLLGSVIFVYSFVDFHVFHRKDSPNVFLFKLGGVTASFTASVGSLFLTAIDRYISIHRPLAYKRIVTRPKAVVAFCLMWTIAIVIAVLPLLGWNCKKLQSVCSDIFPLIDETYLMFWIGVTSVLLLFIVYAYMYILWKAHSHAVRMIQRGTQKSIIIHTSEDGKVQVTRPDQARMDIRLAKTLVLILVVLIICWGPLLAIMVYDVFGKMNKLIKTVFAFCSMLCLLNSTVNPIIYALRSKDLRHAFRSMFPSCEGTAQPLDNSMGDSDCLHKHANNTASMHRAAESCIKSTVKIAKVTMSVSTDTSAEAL
T3 sequence (P47746 whole entry, looked up): as the sequence (P47746 whole entry) above
T3 sequence (P47936 whole entry, looked up): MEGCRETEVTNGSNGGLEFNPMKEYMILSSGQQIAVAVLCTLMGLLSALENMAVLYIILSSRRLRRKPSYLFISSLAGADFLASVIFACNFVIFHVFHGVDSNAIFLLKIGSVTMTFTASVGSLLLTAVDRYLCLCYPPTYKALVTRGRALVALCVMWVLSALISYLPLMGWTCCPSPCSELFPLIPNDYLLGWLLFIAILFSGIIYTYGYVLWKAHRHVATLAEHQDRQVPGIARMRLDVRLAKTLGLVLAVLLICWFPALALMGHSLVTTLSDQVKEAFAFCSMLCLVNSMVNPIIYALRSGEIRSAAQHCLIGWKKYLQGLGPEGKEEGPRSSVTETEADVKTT
Sequence of Cannabinoid receptor 2 (P34972 whole entry): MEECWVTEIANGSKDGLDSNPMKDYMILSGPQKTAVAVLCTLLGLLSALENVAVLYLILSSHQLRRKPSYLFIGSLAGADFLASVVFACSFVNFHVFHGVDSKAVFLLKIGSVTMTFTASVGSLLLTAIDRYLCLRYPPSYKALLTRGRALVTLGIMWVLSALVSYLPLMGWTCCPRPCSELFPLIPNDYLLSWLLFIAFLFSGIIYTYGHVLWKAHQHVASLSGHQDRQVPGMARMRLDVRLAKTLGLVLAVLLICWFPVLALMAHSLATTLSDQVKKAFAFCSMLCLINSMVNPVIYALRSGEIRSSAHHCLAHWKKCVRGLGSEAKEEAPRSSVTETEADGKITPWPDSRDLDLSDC
T2 sequence (P06276 whole entry): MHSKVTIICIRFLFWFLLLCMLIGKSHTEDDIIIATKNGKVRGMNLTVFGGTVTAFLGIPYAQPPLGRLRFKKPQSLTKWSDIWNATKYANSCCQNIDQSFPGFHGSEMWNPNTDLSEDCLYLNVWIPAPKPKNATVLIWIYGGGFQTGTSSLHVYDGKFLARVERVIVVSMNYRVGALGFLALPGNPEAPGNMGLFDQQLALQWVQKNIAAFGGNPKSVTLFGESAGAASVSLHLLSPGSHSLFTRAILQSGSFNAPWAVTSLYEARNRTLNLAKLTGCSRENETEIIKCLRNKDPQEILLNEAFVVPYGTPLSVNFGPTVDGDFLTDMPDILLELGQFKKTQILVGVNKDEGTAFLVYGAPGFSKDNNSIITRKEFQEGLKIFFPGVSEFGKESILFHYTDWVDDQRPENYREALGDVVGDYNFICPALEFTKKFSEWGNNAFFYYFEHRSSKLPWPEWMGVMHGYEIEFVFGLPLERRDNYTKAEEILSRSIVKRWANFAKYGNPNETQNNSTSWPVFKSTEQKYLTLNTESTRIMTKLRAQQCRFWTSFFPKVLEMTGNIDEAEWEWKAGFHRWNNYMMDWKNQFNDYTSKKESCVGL
T1 sequence (P22303 whole entry): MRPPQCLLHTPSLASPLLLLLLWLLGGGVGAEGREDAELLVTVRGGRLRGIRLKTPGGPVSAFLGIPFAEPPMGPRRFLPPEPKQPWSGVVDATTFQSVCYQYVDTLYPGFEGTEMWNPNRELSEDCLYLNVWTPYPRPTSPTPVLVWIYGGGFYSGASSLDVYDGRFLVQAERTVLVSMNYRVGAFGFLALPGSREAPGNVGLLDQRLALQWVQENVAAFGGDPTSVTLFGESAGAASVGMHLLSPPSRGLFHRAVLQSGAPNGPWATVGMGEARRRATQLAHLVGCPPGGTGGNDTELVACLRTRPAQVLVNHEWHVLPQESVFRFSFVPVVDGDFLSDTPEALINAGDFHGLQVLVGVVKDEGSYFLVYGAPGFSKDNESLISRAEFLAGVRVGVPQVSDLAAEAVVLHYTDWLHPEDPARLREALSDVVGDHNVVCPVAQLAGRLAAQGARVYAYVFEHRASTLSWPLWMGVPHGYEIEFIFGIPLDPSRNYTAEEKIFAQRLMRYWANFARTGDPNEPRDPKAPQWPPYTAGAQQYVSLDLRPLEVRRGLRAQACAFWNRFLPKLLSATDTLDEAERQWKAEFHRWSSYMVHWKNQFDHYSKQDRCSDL

Row | Compound | pIC50 (Acetylcholinesterase [1]) | inhibition (Acetylcholinesterase [2]) | pKi (Cannabinoid receptor 1) | pIC50 (Cholinesterase [3]) | pKi (Cholinesterase [4]) | pKi (Cannabinoid receptor 2) | pIC50 (Cholinesterase [5]) | inhibition [6] | inhibition [7] | Ratio [8] | inhibition [9] | inhibition [10] | pKi (Cholinesterase [11]) | pKi (Cholinesterase [12]) | inhibition (Cannabinoid receptor 1) [%]
1 | CC(C)N(CCn1nc(OCc2cccc3ccccc23)c2ccccc21)C(C)C | < 5.00 | Active | < 4.40 | 7.00 | 7.55 | 5.27 |  |  |  |  |  |  |  |  | 
2 | c1ccc2c(COc3nn(CCN4CCCCC4)c4ccccc34)cccc2c1 | < 5.00 | Active | 5.52 | 6.09 | 6.66 | 6.62 | 6.04 | Active | Active | 0.5 | Dose-dependent effect | Active |  |  | 
3 | CCCCCOc1nn(CCCCC)c2ccc([N+](=O)[O-])cc12 | 5.38 |  | 5.89 | < 5.00 |  | 6.17 | < 5.00 |  |  |  |  |  |  |  | 
4 | c1ccc(COc2nn(Cc3ccccc3)c3ccccc23)cc1 | 5.54 |  | 5.59 | < 4.60 |  | 5.45 |  |  |  |  |  |  |  |  | 
5 | COc1ccc(COc2nn(CCN(C(C)C)C(C)C)c3ccc([N+](=O)[O-])cc23)cc1 | 4.04 |  | < 4.40 | < 4.00 |  | 5.05 |  |  |  |  |  |  |  |  | 
6 | Nc1ccc2c(c1)c(OCc1ccc3ccccc3c1)nn2CCN1CCCCC1 | < 5.00 |  | < 4.40 |  |  | 5.70 | 5.82 | inactive | inactive | 0.8 | Dose-dependent effect | Active | 6.42 |  | 
7 | O=[N+]([O-])c1ccc2c(c1)c(OCc1ccc3ccccc3c1)nn2Cc1ccc2ccccc2c1 | < 5.00 |  | < 5.00 | < 5.00 |  | < 5.00 | < 5.00 |  |  |  |  |  |  |  | 
8 | Nc1ccc2c(c1)c(OCc1cccc3ccccc13)nn2CCN1CCCC1 | < 4.60 |  | 4.96 | 5.52 | 6.00 | 5.30 |  | Active | Active | 1.3 | Dose-dependent effect | Active |  |  | 
9 | O=[N+]([O-])c1ccc2c(c1)c(OCc1ccc3ccccc3c1)nn2CCN1CCCCC1 | < 5.00 |  | 5.89 | 5.44 |  | 6.30 | 5.68 |  |  |  |  |  | 5.54 |  | 
10 | Nc1ccc2c(c1)c(OCc1ccccc1)nn2Cc1ccccc1 |  |  | 5.40 | < 5.00 |  | 5.80 | < 5.00 |  |  |  |  |  |  |  | 
11 | c1ccc2c(COc3nn(Cc4cccc5ccccc45)c4ccccc34)cccc2c1 | < 5.00 |  | < 5.00 | < 5.00 |  | < 5.00 |  |  |  |  |  |  |  |  | 
12 | CCCCCn1nc(OCc2ccc(OC)cc2)c2cc([N+](=O)[O-])ccc21 | 5.01 |  | 6.10 | < 5.00 |  | 6.31 | < 5.00 |  |  |  |  |  |  |  | 
13 | COc1ccc(COc2nn(Cc3ccc(OC)cc3)c3ccccc23)cc1 | < 5.00 |  | 5.62 | < 5.00 |  | 6.05 | < 5.00 |  |  |  |  |  |  |  | 
14 | Brc1ccc2c(c1)c(OCc1ccc3ccccc3c1)nn2CCN1CCCCC1 | < 5.00 |  | 5.77 | 6.72 | 7.10 | 5.74 |  |  |  |  |  |  |  |  | 
15 | O=[N+]([O-])c1ccc2c(c1)c(OCc1cccc3ccccc13)nn2CCN1CCCC1 | < 4.60 |  | 6.22 | 5.35 | 5.68 | 6.89 |  |  |  |  | Dose-dependent effect |  |  |  | 
16 | c1ccc2c(c1)c(OCC1CCCCC1)nn2CC1CCCCC1 | 5.15 |  | 6.70 | < 5.00 |  | 5.89 | < 5.00 |  |  |  |  |  |  |  | 
17 | O=[N+]([O-])c1ccc2c(c1)c(OCc1cccc3ccccc13)nn2Cc1cccc2ccccc12 | 5.17 |  | 5.42 | < 5.00 |  | 6.62 |  |  |  |  |  |  |  |  | 
18 | COc1ccc(COc2nn(CCN(C(C)C)C(C)C)c3ccccc23)cc1 | < 5.00 |  | < 4.40 | 5.32 |  | 5.11 | 5.64 | inactive | inactive | 1 | Dose-dependent effect |  |  | 5.59 | 
19 | O=[N+]([O-])c1ccc2c(c1)c(OCc1ccc3ccccc3c1)nn2CCN1CCOCC1 | < 5.00 |  | 5.86 | < 5.00 |  | 6.30 | < 5.00 |  |  |  |  |  |  |  | 
20 | O=[N+]([O-])c1ccc2c(c1)c(OCc1ccc3ccccc3c1)nn2Cc1ccccc1 | 5.20 |  | < 5.00 | < 5.00 |  | 6.40 | < 5.00 |  |  |  |  |  |  |  | 
21 | Cc1c(C(=O)c2cccc3ccccc23)c2cccc3c2n1[C@H](CN1CCOCC1)CO3 |  |  |  |  |  |  |  |  |  |  |  | Active |  |  | 
22 | CCCCCn1nc(OCc2ccc3ccccc3c2)c2cc([N+](=O)[O-])ccc21 | 5.09 |  | 5.80 | < 5.00 |  | 5.86 | < 5.00 |  |  |  |  |  |  |  | 
23 | c1ccc2c(COc3nn(CCN4CCCC4)c4ccccc34)cccc2c1 | < 5.00 |  | 6.25 | 5.55 | 5.92 | 6.40 | 5.17 | Active | Active | 0.7 | Dose-dependent effect | Active |  |  | 
24 | O=[N+]([O-])c1ccc2c(c1)c(OCc1ccccc1)nn2Cc1ccccc1 | 5.14 |  | 5.92 | < 5.00 |  | 6.40 | < 5.00 |  |  |  |  |  |  |  | 
25 | O=[N+]([O-])c1ccc2c(c1)c(OCC1CCCCC1)nn2Cc1ccccc1 | < 5.00 |  | < 4.40 | < 5.00 |  | 7.05 | < 5.00 |  |  |  |  |  |  |  | 39
26 | c1ccc2cc(COc3nn(CCN4CCCCC4)c4ccccc34)ccc2c1 | < 5.00 |  | 5.85 | 6.01 |  | 5.70 | 5.85 | inactive | inactive | 0.5 | Dose-dependent effect | Active |  | 5.92 | 
